Test results as given in patent US20250099431A1, “GLP-1R MODULATING COMPOUNDS” (priority 2020, published 2025).

What was measured:
GLP-1R = GLP-1R (Homo sapiens (Human), UniProt P43220); experiment: GLP-1R activation: cAMP increase in CHO cells stably expressing GLP-1R; type: cell-based; conditions: cAMP increase, 10 point dose response, 30 minutes incubation at 37° C., read-out: EC50
Method: GLP-1R activation by a compound of the present disclosure was quantified by measuring cAMP increase in CHO cells stably expressing GLP-1R (MultiSpan product #C1267-1a). […] The cells were then incubated overnight at 37° C., 5% CO2. […] 1% BSA (Rockland Immunochemicals product #BSA-1000)). Following the medium change, the cells were incubated for 1 hour at 37° C., 5% CO2. The tested GLP-1 compound was added to the cells in a 10 point dose response followed by a 30 minutes incubation at 37° C., 5% CO2. cAMP concentration increase was then detected using Cisbio's cAMP Gs Dynamic Kit (product #62AM4PEC) according to the manufacturer's protocol. The response was plotted against the log of the agonist concentration and fitted to a sigmoidal equation to determine the EC50.

[1] = Microsomal stability (liver microsomal assay, mixed cofactors); predicted hepatic clearance; type: in vitro ADME; conditions: liver microsomes 1.0 mg protein/mL (+UDPGA +NADPH), 1 μM analyte, 37° C.; scaled with human liver weight and hepatic blood flow 1.3 L/hr/kg
Method: Metabolic stability of compounds was assessed using human or rat liver microsomal assays (Corning). In these assays, 10 nL of each analyte at a concentration of 1 mM in 100% DMSO was dispensed into a well of a polypropylene plates using the Echo 550 acoustic liquid dispenser (Labcyte®). Each plate contained 384 wells with a single analyte in each well.
A solution of human (Corning® Gentest™ Human Mixed Pooled Microsomes or rat (Corning® Gentest™ Rat [Sprague-Dawley] Pooled Liver Microsomes) liver microsomes at 2 mg/ml in 100 mM K2HPO4/KH2PO4 at pH 7. 4 was combined with alamethicin from Trichoderma viride (Sigma-Aldrich) 0.0225 mg/ml. The mixture was incubated on ice for 15 minutes. 5 μL of this mixture was added to individual wells following a 15 minute incubation at room temperature and supplemented with 5 μL NADPH Regenerating Solution of cofactors (Corning® Gentest™ UGT Reaction Mix) containing 100 mM K2HPO4/KH2PO4 at pH 7.4, 2.6 mM NADP+, 6.6 mM glucose-6-phosphate, 6.6 mM MgCl2, 0.8 U/mL glucose-6-phosphate dehydrogenase, 0.1 mM sodium citrate, and 6.8 mM uridine diphosphate-glucuronic acid. The final concentration of each analyte compound at the beginning of the reaction was 1 μM. The reactions were incubated at 37° C. and samples were collected at time points of 0, 5, 15, 30, 40, 50, 60, and 70 minutes for further analysis. Background data were collected using reactions without analyte compounds.
Upon collection of the sample time points, samples were quenched with 30 μL of a solution of 72% acetonitrile, 8% methanol, 0.1% formic acid, 19.9% water, and internal standard (IS). Reaction plates were spun in a centrifuge at speed of 4,000 rcf for 30 minutes at 4° C., following a dilution of the 10 μL quenched reaction into 40 μL de-ionized water, yielding assay plates.
Assay plates were analyzed using solid-state extraction coupled with quadrupole time-of-flight mass spectrometer, using Agilent QToF 6530 RapidFire 360 system, with C4 type A solid state cartridges. Analysis was performed in either positive or negative ionization modes. Mobile phases contained 0.1% formic acid in water for loading analytes onto solid state extraction cartridges and 0.1% formic acid in acetonitrile for elution into a mass spectrometer in positive ionization mode, or 0.1% acetic acid in water for loading and 0.1% acetic acid in acetonitrile for extraction in negative ionization mode. Peak-area ratios of integrated counts for individual compounds to IS were plotted as semi-logarithmic chart of log vs time. The initial linear portion of decay was fitted to a linear regression equation to derive the half-time of analyte decay.
Pharmacological parameters for an analyte compound metabolism were calculated using the following equations: […]
wherein concentration refers to the protein concentration (mg/ml) in the reaction.
This scales the in vitro intrinsic clearance up to the value that would be predicted for the entire mass of liver tissue (but with no restriction by blood flow). The value depends upon the size of the liver (species-dependent) and the yield of microsomal protein as appropriate (assumed to be species-independent).
Hepatic clearance will depend upon the inter-relationship of intrinsic clearance and hepatic blood flow and was predicted from in vitro data using a variety of approaches.
The hepatic extraction is reported as the predicted clearance expressed as a proportion of hepatic blood flow.

GLP-1R, sequence (P43220 24-463): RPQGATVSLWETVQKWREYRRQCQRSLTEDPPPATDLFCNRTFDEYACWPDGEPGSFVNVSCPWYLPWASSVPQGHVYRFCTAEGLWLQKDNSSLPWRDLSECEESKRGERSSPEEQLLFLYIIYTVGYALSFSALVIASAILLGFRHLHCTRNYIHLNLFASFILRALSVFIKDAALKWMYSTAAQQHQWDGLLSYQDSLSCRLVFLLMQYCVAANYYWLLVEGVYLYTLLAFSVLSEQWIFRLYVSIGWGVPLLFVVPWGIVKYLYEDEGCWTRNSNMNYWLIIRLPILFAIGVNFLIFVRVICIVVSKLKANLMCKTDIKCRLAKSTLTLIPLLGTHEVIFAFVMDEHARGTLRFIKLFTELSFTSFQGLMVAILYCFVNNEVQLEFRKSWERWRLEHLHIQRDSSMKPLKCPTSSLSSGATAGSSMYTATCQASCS

Row | Compound | EC50 (GLP-1R) [nM] | Predicted Hepatic Clearance (Pred. Cl.) [1] [mL/min/kg]
1 | CC1(c2ccc(Cl)cc2F)Oc2cccc(-c3ccc(Cc4nc5ccc(C(=O)O)cc5n4C[C@@H]4CCO4)cn3)c2O1 (stereo partly drawn) [Example 77, 2-((6-(2-(4-chloro-2-fluorophenyl)-2-methylbenzo[d][1, 3]dioxol-4-yl)pyridin-3-yl)methyl)-1-(((S)-oxetan-2-yl)methyl)-1H-benzo[d]imidazole-6-carboxylic acid] | 72 | 4.33
2 | COCCn1c(Cc2cc(F)c(-c3cccc4c3OC(c3ccc(C#N)cc3F)O4)cc2F)nc2ccc(C(=O)O)cc21 (centres unmarked) [Example 31, 2-(4-(2-(4-cyano-2-fluorophenyl)benzo [d][1,3]dioxol-4-yl)-2,5-difluorobenzyl)-1-(2-methoxyethyl)-1H-benzo[d]imidazole-6-carboxylic acid] | 89 | 3.17
3 | CC1(c2ccc(Cl)cc2F)Oc2cccc(-c3cc(F)c(Cc4nc5ccc(C(=O)O)cc5n4C[C@@H]4CCO4)c(C#N)c3)c2O1 (stereo partly drawn) [Example 18, 2-(4-(2-(4-chloro-2-fluorophenyl)-2-methylbenzo[d][1, 3]dioxol-4-yl)-2-cyano-6-fluorobenzyl)-1-(((S)-oxetan-2-yl)methyl)-1H-benzo[d]imidazole-6-carboxylic acid] | 0.14 | 8
4 | 2-[[4-[2-(5- Chloro-2-pyridyl)- 2-methyl-1,3- benzodioxol-4- yl]triazol-1- yl]methyl]-3-(2- methoxyethyl) bencarboxylic acid [Example 104] | 3030 | 13
5 | COCCn1c(Cc2c(F)cc(-c3cccc4c3OC(C)(c3ccc(Cl)cc3OC)O4)cc2F)nc2ccc(C(=O)O)cc21 (centres unmarked) [Example 60, 2-(4-(2-(4-chloro-2-methoxyphenyl)-2-methylbenzo[d][1, 3]dioxol-4-yl)-2,6-difluorobenzyl)-1-(2-methoxyethyl)-1H-benzo[d]imidazole-6-carboxylic acid] | 3.8 | 3.5
6 | COCCn1c(Cc2c(F)cc(-c3cccc4c3OC(c3ccc(C#N)cc3F)O4)cc2F)nc2ccc(C(=O)O)cc21 (centres unmarked) [Example 5, 2-(4-(2-(4-cyano-2-fluorophenyl)benzo[d][1, 3]dioxol-4-yl)-2,6-difluorobenzyl)-1-(2-methoxyethyl)-1H-benzo[d]imidazole-6-carboxylic acid] | 161 | <1.83
7 | COCCn1c(Cc2ccc(-c3cccc4c3OC(c3ccccc3)O4)cc2F)nc2ccc(C(=O)O)cc21 (centres unmarked) [Example 32, 2-(2-fluoro-4-(2-phenylbenzo[d][1, 3]dioxol-4-yl)benzyl)-1-(2-methoxyethyl)-1H-benzo[d]imidazole-6-carboxylic acid] | 1920 | 6.33
8 | CC1(c2ccc(Cl)cc2F)Oc2cccc(-c3cc(F)c(Cc4nc5ccc(C(=O)O)cc5n4C[C@@H]4CCO4)c(F)c3)c2O1 (stereo partly drawn) [Example 22, 2-(4-(2-(4-chloro-2-fluorophenyl)-2-methylbenzo[d][1, 3]dioxol-4-yl)-2,6-difluorobenzyl)-1-(((S)-oxetan-2-yl)methyl)-1H-benzo[d]imidazole-6-carboxylic acid] | 0.024 | <1.83
9 | O=C(O)c1ccc2nc(Cc3c(F)cc(-c4cccc5c4CN(c4ccc(Cl)cc4F)C5=O)cc3F)n(C[C@@H]3CCO3)c2c1 [Example 73, (S)-2-(4-(2-(4-chloro-2-fluorophenyl)-1-oxoisoindolin-4-yl)-2,6-difluorobenzyl)-1-(oxetan-2-ylmethyl)-1H-benzo[d]imidazole-6-carboxylic acid] | 10000 | 2.5
10 | CC1(c2ccc(C#N)cc2F)Oc2cccc(-c3cc(F)c(Cc4nc5ccc(C(=O)O)cc5n4C[C@@H]4CCO4)cc3F)c2O1 (stereo partly drawn) [Example 25, 2-(4-(2-(4-cyano-2-fluorophenyl)-2-methylbenzo[d][1, 3]dioxol-4-yl)-2,5-difluorobenzyl)-1-(((S)-oxetan-2-yl)methyl)-1H-benzo[d]imidazole-6-carboxylic acid] | 0.3 | 4.33
